16 molecules from patent US20260216182A1, “PYRIDAZINE NLRP3 INHIBITOR COMPOUND, PHARMACEUTICAL COMPOSITION, AND PREPARATION METHOD THEREFOR AND USE THEREOF” (CHANGCHUN GENESCIENCE PHARMACEUTICAL CO., LTD., priority 2022, published 2026) can be followed below.

Read-outs that look alike come from different tables or passages of the source.

In one test the target is T1, NLRP3 (Homo sapiens, UniProt Q96P20).
T1 construct: endogenous in cells; host or cells: THP-1 (human monocyte, PMA-differentiated, LPS-primed, nigericin-stimulated)
In words: IC50 of NLRP3 inhibitors in reducing IL-1β secretion by THP-1 cells (PMA, LPS, nigericin; ELISA). The test is classed as cell-based. The conditions noted are these: compound + nigericin 1 h. As to the method: Test Example 1 Experiment on Detection of IC50 of NLRP3 Inhibitors in Reducing the Level of IL-1β Secretion by THP-1 Cells
In this experiment, we use the human monocyte THP-1 to study the inhibitory activity of NLRP3 inhibitor on the secretion of IL-Iβ by cells. Human THP-1 cells are treated with crotonol-12-tetradecanoate-13-acetate (PMA) to differentiate into mature macrophage models. Then, according to the two stages of inflammasome formation in cells (assembly and activation), the cells are stimulated with lipopolysaccharide (LPS) and nigericin in turn, ultimately promoting the extracellular release of IL-1β by THP-1 cells. The first stage of inflammasome formation involves stimulating cells with LPS (lipopolysaccharide), an agonist of the Toll-like receptor TLR4, to activate the expression of the inflammasome-associated proteins NLRP3, caspase 1, and pro-IL-1β, a precursor of IL-1β. The second stage of inflammasome formation involves the addition of the potassium ion carrier nigericin, which causes a series of membrane potential changes in THP-1 cells, destroys the cell membrane structure, causes the efflux of cellular potassium ions, further stimulates the oligomerization of NLRP3 monomers to form NLRP3 oligomers, and begins to recruit ASC and pro-caspase-1 to assemble the NLRP3 inflammasome complex containing a large amount of pro-caspase-1. The pro-caspase-1 on the activated NLRP3 inflammasome is enzymatically self-activated to form a large amount of active caspase-1. The activated caspase-1 further enzymatically promotes the conversion of pro-IL-1β into mature IL-1β that can be secreted.
(1) Cell suspensions were collected. The cells were centrifuged at 1000 rpm for 4 min, the supernatant was discarded, the cells were resuspended with 1 mL of test medium, and then the cell culture medium was gently pipetted up and down with a pipette and its tip to break up the cell aggregates. After counting the cells, the THP-1 cells were resuspended with complete RPMI medium 1640 containing PMA and seeded into 96-well plates and cultured in a 37° C., 5% CO2 incubator for 72 h.
(2) The culture medium was taken out from each well with an automatic plate washer dispenser EL406 and each well was rinsed twice with PBS. To each well, 96 μL of RPMI 1640 medium containing LPS was added. The cells were cultured in a 37° C., 5% CO2 incubator for 4 h.
(3) To each well, 2 μL of the compound and 2 μL of nigericin sodium salt were added, and the final compound concentration selected was 5000 nM, 1000 nM, 200 nM, 40 nM, 8 nM, 1.6 nM, 0.32 nM, 0 nM, respectively. The cells were cultured in a 37° C., 5% CO2 incubator for 1 h.
(4) An appropriate amount of supernatant was taken out, diluted 100 times, and the content of IL-1β in the supernatant was detected using Human IL-1 beta Valukine ELISA kit.
(In general: An ELISA detects its analyte on a solid surface through an enzyme-linked reagent.)

The test system of the next test is IL-1β. In words: Mouse acute peritonitis model (LPS/ATP), IL-1β in peritoneal lavage fluid and blood. The test is classed as in vivo, C57BL/6 mice. The conditions noted are these: Mus musculus, 10 mg/kg oral, vs vehicle group. As to the method: Test Example 2: Mouse Acute Peritonitis Model Evaluation Experiment
Male C57BL/6 mice were orally administered with a 10 mg/kg dose of the test compound or control vehicle, and then injected intraperitoneally with 1 μg of E. coli 055: B5 ultrapure lipopolysaccharide (LPS) suspension 1 h later, followed by an intraperitoneal injection of 0.5 ml of 30 mM disodium salt ATP suspension (in PBS, the pH of the ATP solution was adjusted to 7.2 before injection) 2 h later. After 30 min, all animals would be euthanized by carbon dioxide, and blood and peritoneal lavage fluid would be collected. The peritoneal lavage fluid was kept at 4° C.
Preparation of peritoneal lavage fluid: The peritoneal cavity would be lavaged with ice-cold PBS (3 mL) containing 25 U/mL heparin and 10% heat-inactivated FBS. Prior to use, one tablet of the protease inhibitor mixture was added per 50 mL of buffer. The collected lavage fluid would be centrifuged (centrifugation conditions: 1000g, 4° C., 10 min) to remove cells and cell debris, and the clarified samples would be stored at −80° C. for measurement of cytokine IL-1β.
The mouse IL-1β/IL-1F2 DuoSet ELISA kit (R&D Systems) was used to measure the changes in IL-1β cytokine levels in peritoneal lavage fluid and serum. By comparing with the Vehical group, the inhibition rate of the compound on IL-1β was calculated.

The test system of another test is mouse NASH model. In words: Mouse NASH model test (HFD + fructose), combination with semaglutide. The note with it: low/high dose semaglutide alone. The test is classed as in vivo, mice. As to the method: Test Example 6 Mouse NASH Model Test
After the animals arrived and acclimatized for 1 week, they were randomly divided into 2 groups. 48 mice were fed a high-fat diet (HFD) and had free access to 15% fructose water (w/w). After the animals were fed for 20 weeks, they were fasted for 6 h, and fasting blood glucose (FBG) was monitored by a blood glucose meter. Orbital blood was taken from all animals, and serum was collected by centrifugation to detect serum ALT levels. Animals were randomly divided into 6 groups according to their body weight, FBG and ALT levels. After that, the high fat feed (HFD) was replaced with the modified high fat feed (mHFD), and the mice had free access to 15% fructose water (v/w). The 8 mice in the other group were fed normal diet and water.
The first end point of the experiment: After 8 weeks of administration, the end point body weight was recorded and the animals were fasted for 6 h, and fasting blood glucose was measured with a blood glucose meter. The mice were then euthanized by CO2 and serum was collected by orbital blood sampling and stored at −80° C. for insulin and biochemical analysis. The animal's liver was taken and the liver weight was recorded. The liver was divided into four parts, one part was quick-frozen in liquid nitrogen for biochemical analysis, one part was placed in tissue fixative for pathological analysis, one part was stored in RNAlater for qPCR detection (backup for later use), and one part was quick-frozen in liquid nitrogen for possible subsequent detection.
The second end point of the experiment: 3 mice were kept in each group for 6 weeks for further observation. The end point body weight was recorded and the mice were fasted for 6 h. Fasting blood glucose was tested with a blood glucose meter. The mice were then euthanized by CO2 and serum was collected by orbital blood sampling and stored at −80° C. for insulin and biochemical analysis. The animal's liver was taken and the liver weight was recorded. The liver was divided into four parts, one part was quick-frozen in liquid nitrogen for biochemical analysis, one part was placed in tissue fixative for pathological analysis, one part was stored in RNAlater for qPCR detection (backup for later use), and one part was quick-frozen in liquid nitrogen for subsequent detection.

Setting [1] is: read-out: IL-1β Peritoneal lavage fluid (inhibition rate).
Setting [2] is: read-out: IL-1β Plasma (inhibition rate).

T1 sequence (Q96P20 whole entry): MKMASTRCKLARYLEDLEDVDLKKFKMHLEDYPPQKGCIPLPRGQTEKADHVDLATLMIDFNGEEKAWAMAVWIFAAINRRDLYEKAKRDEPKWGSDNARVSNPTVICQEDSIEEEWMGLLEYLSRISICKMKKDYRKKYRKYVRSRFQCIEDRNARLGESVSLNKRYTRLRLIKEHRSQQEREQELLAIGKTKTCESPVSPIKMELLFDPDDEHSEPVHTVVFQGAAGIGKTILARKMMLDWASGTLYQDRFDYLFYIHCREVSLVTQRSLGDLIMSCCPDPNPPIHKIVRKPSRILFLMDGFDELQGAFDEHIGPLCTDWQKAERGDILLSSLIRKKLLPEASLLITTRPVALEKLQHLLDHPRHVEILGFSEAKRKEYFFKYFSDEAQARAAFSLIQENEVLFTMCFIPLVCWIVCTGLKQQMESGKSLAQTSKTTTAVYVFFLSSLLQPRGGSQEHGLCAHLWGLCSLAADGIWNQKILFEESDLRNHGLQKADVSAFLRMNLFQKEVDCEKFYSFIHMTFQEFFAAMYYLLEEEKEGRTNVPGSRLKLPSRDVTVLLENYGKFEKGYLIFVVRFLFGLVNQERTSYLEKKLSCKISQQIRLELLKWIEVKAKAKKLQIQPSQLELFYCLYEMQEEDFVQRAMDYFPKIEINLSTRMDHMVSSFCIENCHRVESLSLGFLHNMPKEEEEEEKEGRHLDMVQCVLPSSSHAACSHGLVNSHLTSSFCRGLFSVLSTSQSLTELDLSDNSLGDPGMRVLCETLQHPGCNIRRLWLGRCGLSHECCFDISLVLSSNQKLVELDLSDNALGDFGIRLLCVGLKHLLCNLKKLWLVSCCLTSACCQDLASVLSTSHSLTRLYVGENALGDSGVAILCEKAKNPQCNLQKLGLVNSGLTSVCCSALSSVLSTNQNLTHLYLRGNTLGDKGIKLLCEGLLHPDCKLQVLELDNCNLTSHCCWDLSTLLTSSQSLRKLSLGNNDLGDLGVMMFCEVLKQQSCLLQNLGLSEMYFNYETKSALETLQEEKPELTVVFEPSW

What is called IC50 is the midpoint of a concentration-inhibition curve. One may read the inhibition as the relative decrease from the control value, in per cent. As to `CC#Cc1ccc2c(-c3c(O)cc(C(F)(F)F)cc3F)nnc(NC[C@H](O)CO)c2c1` [Compound 064, (2S)-3-((4-(2-fluoro-6-hydroxy-4-(trifluoromethyl)phenyl)-7-(prop-1-yn-1-yl)phthalazin-1-yl)amino) propan-1,2-diol], the 50% inhibitory concentration (IC50) on NLRP3 came to 0.018 µM. For the same molecule, the inhibition at 10 mg/kg was found to be 81% in the test on IL-1β (setting [1]) and 90% in the test on IL-1β (setting [2]).

Turning to `OC[C@@H](O)CNc1nnc(-c2ccc(Cl)cc2O)c2ccc(C#CC3CC3)cc12` [Compound 079, (S)-3-((4-(4-chloro-2-hydroxyphenyl)-7-(cyclopropylethynyl)phthalazin-1-yl)amino) propan-1,2-diol], at NLRP3, the IC50 was found to be 0.041 µM. Further, the inhibition at 10 mg/kg in the test on IL-1β (setting [1]) came out at 51%; in the test on IL-1β (setting [2]) it was 21%. The corresponding values for `CC#Cc1ccc2c(-c3c(O)cc(Cl)cc3F)nnc(NC[C@H](O)CO)c2c1` [Compound 063, (2S)-3-((4-(4-chloro-2-fluoro-6-hydroxyphenyl)-7-(prop-1-yn-1-yl)phthalazin-1-yl)amino) propan-1,2-diol] are 0.015 µM, 79% and 74%. For `CC(=O)c1ccc2c(-c3ccc(C(F)(F)F)cc3O)nnc(NC[C@H](O)CO)c2c1` [Compound 082], in that order: 0.032 µM, 0% and 12%. As to semaglutide [reference compound], the “rebound of body weight after drug withdrawal” value in the test on mouse NASH model is “neither the control compound combined with semaglutide nor the groups of low/high dose semaglutide alone inhibited the rebound of body weight”.

As to `CC(=O)c1ccc2c(-c3ccc(C(F)(F)F)cc3O)nnc(N[C@@H]3CCCC[C@H]3O)c2c1` [Compound 081], the IC50 on NLRP3 was 0.0053 µM. For the same molecule, the inhibition at 10 mg/kg with IL-1β (setting [1]) is 45%; in the test with IL-1β (setting [2]) it was 61%. `CC#Cc1ccc2c(-c3ccc(Cl)cc3O)nnc(N[C@@H]3CCN(CCO)C3=O)c2c1` [Compound 074, (R)-3-((4-(4-chloro-2-hydroxyphenyl)-7-(prop-1-yn-1-yl)phthalazin-1-yl)amino)-1-(2-hydroxyethyl)pyrrolidin-2-one]: the IC50 at NLRP3 turned out to be 0.0072 µM. Still for that read-out and setting: to `CC#Cc1ccc2c(-c3ccc(Cl)cc3O)nnc(N[C@@H]3CC(=O)N(CCO)C3)c2c1` [Compound 073, (R)-4-((4-(4-chloro-2-hydroxyphenyl)-7-(prop-1-yn-1-yl)phthalazin-1-yl)amino)-1-(2-hydroxyethyl)pyrrolidin-2-one] belongs 0.051 µM; to `Cc1cc(Cl)cc(O)c1-c1nnc(NCC(C)(C)O)c2cc(-n3nccn3)ccc12` [Compound 028, 5-chloro-2-(4-((2-hydroxy-2-methylpropyl)amino)-6-(2H-1,2,3-triazol-2-yl)phthalazin-1-yl)-3-methylphenol], 0.035 µM. Same read-out and setting: to `CC#Cc1ccc2c(-c3c(C)cc(Cl)cc3O)nnc(NCC(C)(C)O)c2c1` [Compound 024, 5-chloro-2-(4-((2-hydroxy-2-methylpropyl)amino)-6-(1-propyn-1-yl)phthalazin-1-yl)-3-methylphenol] belongs 0.019 µM. As to `COC(=O)N1CCC[C@@H](Nc2nnc(-c3ccc(Cl)cc3O)c3ccncc23)C1` [Compound 010, Methyl (R)-3-((1-(4-chloro-2-hydroxyphenyl)pyrido[3,4-d]pyridazin-4-yl)amino)piperidin-1-carboxylate], the IC50 on NLRP3 was 0.016 µM. As for `CC(C)(C(=O)NC1CC1)N1CCC[C@@H](Nc2nnc(-c3ccc(Cl)cc3O)c3ccncc23)C1` [Compound 043, (R)-2-(3-((1-(4-chloro-2-hydroxyphenyl)pyrido[3,4-d]pyridazin-4-yl)amino)piperidin-1-yl)-N-cyclopropyl-2-methylpropionamide], the IC50 at NLRP3 amounted to 0.034 µM. On to `NC(=O)CN1CCC[C@@H](Nc2nnc(-c3ccc(Cl)cc3O)c3ccncc23)C1` [Compound 009, (R)-2-(3-((1-(4-chloro-2-hydroxyphenyl)pyrido[3,4-d]pyridazin-4-yl)amino)piperidin-1-yl)acetamide], for which the IC50 at NLRP3 amounted to 0.028 µM.

With `C[C@H](C(N)=O)N1CCC[C@@H](Nc2nnc(-c3ccc(Cl)cc3O)c3ccncc23)C1` [Compound 017, (R)-2-((R)-3-((1-(4-chloro-2-hydroxyphenyl)pyrido[3,4-d]pyridazin-4-yl)amino)piperidin-1-yl) propionamide], the IC50 at NLRP3 came out at 0.017 µM. In the case of `CC#Cc1ccc2c(-c3c(O)cc(C(F)(F)F)cc3F)nnc(NC[C@H](C)O)c2c1` [Compound 071, 3-fluoro-2-(4-(((S)-2-hydroxypropyl)amino)-6-(prop-1-yn-1-yl)phthalazin-1-yl)-5-(trifluoromethyl)phenol], the IC50 at NLRP3 is 0.023 µM. Still for that read-out and setting: to `C[C@@H](C(N)=O)N1CCC[C@@H](Nc2nnc(-c3ccc(Cl)cc3O)c3ccncc23)C1` [Compound 016, (S)-2-((R)-3-((1-(4-chloro-2-hydroxyphenyl)pyrido[3,4-d]pyridazin-4-yl)amino)piperidin-1-yl) propionamide] belongs 0.011 µM.
